Test results reported in patent publication US12370183B2, “Compositions and methods for treating malaria” (Rutgers, The State University of New Jersey, priority 2020, dated 2025).
Like-named read-outs stand apart in the source and are kept apart here.

Tests used:
[1] = system: 3D7 strain of Plasmodium falciparum; test: Potency in the 3D7 strain of Plasmodium falciparum (EC50); assay type: cell-based; details: Plasmodium falciparum
From the text: The present invention relates to methods of treating malaria with tetrahydrobenzonaphtyridine carboxanilide (TBN) derivatives and related pyrrolinones and hydrolysis products thereof. These compounds are active against Plasmodium falciparum strains that are resistant to multiple drugs currently on the market. The present invention further relates to novel compounds and pharmaceutical compositions comprising such compounds. The compounds have been synthesized and tested for their potency in the 3D7 strain of Plasmodium falciparum. Their cytotoxicity was also tested in the BJ human fibroblast line. No compounds show significant cytotoxicity.
(§1) A high-throughput screen performed against the Plasmodium parasite. About 8,000 compounds were screened. Each hit was tested against resistant P. falciparum variants K1, V1S, D10DD, ATP4 1247, and C2B. Potency against these assays assured that the chemotype acts through a mechanism distinct from that of halofantrine, chloroquine, mefloquine, pyrimethamine, proguanil, atovaquone, and (+)SJ733. The toxicity of the compounds was also measured by testing their lethality against a BJ cell line (human fibroblasts). No TBNs were toxic. A structure activity investigation was performed in order to improve the EC50 of the TBNs to the single-digit nanomolar range, as well as to increase the water solubility.
(§2) Substituents were installed at N−2 by using a variety of methods. Reductive alkylation (Abdel-Magid, A. F.; Mehrman, S. J. A Review on the Use of Sodium Triacetoxyborohydride in the Reductive Amination of Ketones and Aldehydes. Org. Process Res. Dev. 2006, 10 (5), 971-1031) was a dependable technique that produced over fifteen analogues. Conjugate additions and nucleophilic substitutions provided most of the others. A type of reductive alkylation that uses carboxylic acids instead of aldehydes (the Beller reduction) led to two analogues (Sorribes, I.; Junge, K.; Beller, M. Direct Catalytic N-Alkylation of Amines with Carboxylic Acids. J. Am. Chem. Soc. 2014, 136 (40), 14314-14319. Some of the compounds listed were synthesized through other means, or were derived from other TBNs. Compounds 66 and 128 were produced by the amidation of acids 132 and 133, which had the corresponding substitution already installed. TBNs 93, and 94 were produced from the Pfitzinger products formed from the condensation of isatin with (R)-1-(1-phenylethyl)piperidin-4-one (134) and (S)-1-(1-phenylethyl)piperidin-4-one (135), respectively.

[2] = system: resistant P. falciparum variant K1; test: Potency against resistant P. falciparum variant K1 (EC50); assay type: cell-based; details: Plasmodium falciparum, K1, read-out: K1 EC50 (μM)
Procedure: as §1, §2

[3] = 3D7, read-out: 3D7 Mean EC50 (μM)
[4] = 3D7, read-out: 3D7 Mean EC50 of the TBN (μM)

Structure (SMILES)	EC50 [1, 3] [µM]	EC50 [2] [µM]	further results
CS(=O)(=O)CCN1CCc2nc3ccccc3c(C(=O)Nc3ccc(F)c(F)c3)c2C1 [Compound 130, N-(3,4-Difluorophenyl)-2-(2-(methylsulfonyl)ethyl)-1,2,3,4-tetrahydrobenzo[b][1,6]naphthyridine-10-carboxamide]	> 14.7	–	–
O=C(Nc1ccc(F)c(F)c1)c1c2c(nc3ccccc13)CCN(CCN1C(=O)c3ccccc3C1=O)C2 [Compound 121, N-(3,4-Difluorophenyl)-2-(2-(1,3-dioxoisoindolin-2-yl)ethyl)-1,2,3,4-tetrahydrobenzo[b][1,6]naphthyridine-10-carboxamide]	3.95 ± 1.07	–	–
CN(C)CCCN1CCc2nc3ccccc3c(C(=O)Nc3ccc(F)c(F)c3)c2C1 [Compound 126, N-(3,4-Difluorophenyl)-2-(3-(dimethylamino)propyl)-1,2,3,4-tetrahydrobenzo[b][1,6]naphthyridine-10-carboxamide]	9.46 ± 2.17	> 19.2	–
CCOCC(=O)N1CCc2nc3ccccc3c(C(=O)Nc3ccc(F)c(F)c3)c2C1 [Compound 119, N-(3,4-Difluorophenyl)-2-(2-ethoxyacetyl)-1,2,3,4-tetrahydrobenzo[b][1,6]naphthyridine-10-carboxamide]	3.49 ± 0.831	–	–
O=C(Nc1ccc(F)c(F)c1)c1c2c(nc3ccccc13)CCN(Cc1ccc(F)cc1)C2 [Compound 107, N-(3,4-Difluorophenyl)-2-(4-fluorobenzyl)-1,2,3,4-tetrahydrobenzo[b][1,6]naphthyridine-10-carboxamide]	0.569	0.401	–
Cn1ccnc1CN1CCc2nc3ccccc3c(C(=O)Nc3ccc(F)c(F)c3)c2C1 [Compound 127, N-(3,4-Difluorophenyl)-2-((1-methyl-1H-imidazol-2-yl)methyl)-1,2,3,4-tetrahydrobenzo[b][1,6]naphthyridine-10-carboxamide]	10.1 ± 6.39	–	–
CC(c1ncccn1)N1CCc2nc3c(c(C(=O)Nc4ccc(F)c(F)c4)c2C1)CCCC3 (stereo not drawn) [Compound 139, N-(3,4-Difluorophenyl)-2-(1-(pyrimidin-2-yl)ethyl)-1,2,3,4,6,7,8,9-octahydrobenzo[b][1,6]naphthyridine-10-carboxamide]	0.849 ± 0.52	0.266 ± 0.0462	EC50 [1, 4]: 0.453 ± 0.238 µM
O=C(Nc1ccc(F)c(F)c1)c1c2c(nc3ccc(Cl)cc13)CCN(CCc1ccccc1)C2 [Compound 158, 8-Chloro-N-(3,4-difluorophenyl)-2-phenethyl-1,2,3,4-tetrahydrobenzo[b][1,6]naphthyridine-10-carboxamide]	0.0153 ± 0.00774	–	–
C[C@@H](c1ccccc1)N1CCc2nc3ccccc3c(C(=O)Nc3ccc(F)c(F)c3)c2C1 [Compound 94, (S)—N-(3,4-Difluorophenyl)-2-(1-phenylethyl)-1,2,3,4-tetrahydrobenzo[b][1,6]naphthyridine-10-carboxamide]	0.154 ± 0.0285	0.148	–
COC(=O)CN1CCc2nc3ccccc3c(C(=O)Nc3ccc(F)c(F)c3)c2C1 [Compound 125, Methyl 2-(10-((3,4-difluorophenyl)carbamoyl)-3,4-dihydrobenzo[b][1,6]naphthyridin-2(1H)-yl)acetate]	9.11 ± 7.61	–	–
CC(C)CN1CCc2nc3ccccc3c(C(=O)Nc3ccc(F)c(F)c3)c2C1 [Compound 95, N-(3,4-Difluorophenyl)-2-isobutyl-1,2,3,4-tetrahydrobenzo[b][1,6]naphthyridine-10-carboxamide]	0.154 ± 0.162	0.121	–
CC(C)(C)OC(=O)N1CCC(N2CCc3nc4ccccc4c(C(=O)Nc4ccc(F)c(F)c4)c3C2)CC1 [Compound 89, tert-Butyl 4-(10-((3,4-difluorophenyl)carbamoyl)-3,4-dihydrobenzo[b][1,6]naphthyridin-2(1H)-yl)piperidine-1-carboxylate]	0.0257 ± 0.00583	–	–
O=C(Nc1ccc(F)c(F)c1)c1c2c(nc3ccccc13)CCN(Cc1cncc(F)c1)C2 [Compound 115, N-(3,4-Difluorophenyl)-2-((5-fluoropyridin-3-yl)methyl)-1,2,3,4-tetrahydrobenzo[b][1,6]naphthyridine-10-carboxamide]	1.96 ± 2.34	–	–
Cc1nc(CN2CCc3nc4ccccc4c(C(=O)Nc4ccc(F)c(F)c4)c3C2)cs1 [Compound 112, N-(3,4-Difluorophenyl)-2-((2-methylthiazol-4-yl)methyl)-1,2,3,4-tetrahydrobenzo[b][1,6]naphthyridine-10-carboxamide]	1.03 ± 0.549	0.641	–
CCN1CCc2nc3c(c(C(=O)Nc4ccc(F)c(F)c4)c2C1)CCCC3 [Compound 138, N-(3,4-Difluorophenyl)-2-ethyl-1,2,3,4,6,7,8,9-octahydrobenzo[b][1,6]naphthyridine-10-carboxamide]	0.715 ± 0.29	0.64	EC50 [1, 4]: > 12.2 µM
CC(C)N1CCc2nc3ccccc3c(C(=O)Nc3ccc(F)c(F)c3)c2C1 [Compound 96, N-(3,4-Difluorophenyl)-2-isopropyl-1,2,3,4-tetrahydrobenzo[b][1,6]naphthyridine-10-carboxamide]	0.215 ± 0.269	0.177	–
Cn1ccc(CN2CCc3nc4ccccc4c(C(=O)Nc4ccc(F)c(F)c4)c3C2)n1 [Compound 114, N-(3,4-Difluorophenyl)-2-((1-methyl-1H-pyrazol-3-yl)methyl)-1,2,3,4-tetrahydrobenzo[b][1,6]naphthyridine-10-carboxamide]	1.89 ± 0.817	–	–
O=C(Nc1ccc(F)c(F)c1)c1c2c(nc3ccccc13)CCN(CCc1ccccc1)C2 [Compound 91, N-(3,4-Difluorophenyl)-2-phenethyl-1,2,3,4-tetrahydrobenzo[b][1,6]naphthyridine-10-carboxamide]	0.117 ± 0.102	0.0839	–
O=C(Nc1ccc(F)c(F)c1)c1c2c(nc3ccccc13)CCN(Cc1ncccc1F)C2 [Compound 118, N-(3,4-difluorophenyl)-2-((3-fluoropyridin-2-yl)methyl)-1,2,3,4-tetrahydrobenzo[b][1,6]naphthyridine-10-carboxamide]	3.41 ± 2.9	–	–
O=C(Nc1ccc(F)c(F)c1)c1c2c(nc3ccccc13)CCN(CCc1ccccn1)C2 [Compound 98, N-(3,4-Difluorophenyl)-2-(2-(pyridin-2-yl)ethyl)-1,2,3,4-tetrahydrobenzo[b][1,6]naphthyridine-10-carboxamide]	0.329 ± 0.0232	–	–
O=C(Nc1ccc(F)c(F)c1)c1c2c(nc3ccccc13)CCN(CC(F)(F)F)C2 [Compound 123, N-(3,4-Difluorophenyl)-2-(2,2,2-trifluoroethyl)-1,2,3,4-tetrahydrobenzo[b][1,6]naphthyridine-10-carboxamide]	7.69 ± 8.61	–	–
Cn1cnc(CN2CCc3nc4ccccc4c(C(=O)Nc4ccc(F)c(F)c4)c3C2)c1 [Compound 117, N-(3,4-Difluorophenyl)-2-((1-methyl-1H-imidazol-4-yl)methyl)-1,2,3,4-tetrahydrobenzo[b][1,6]naphthyridine-10-carboxamide]	2.4 ± 1.39	–	–
O=C(Nc1ccc(F)c(F)c1)c1c2c(nc3ccccc13)CCNC2 [Compound 88, N-(3,4-Difluorophenyl)-1,2,3,4-tetrahydrobenzo[b][1,6]naphthyridine-10-carboxamide]	10.3 ± 10.2	–	–
O=C1c2c3c(nc4cc(Cl)ccc24)CCN(CCc2ccccc2)C3N1c1ccc(F)c(F)c1 (stereo not drawn) [Compound 172, 8-Chloro-2-(3,4-difluorophenyl)-3-phenethyl-2a,3,4,5-tetrahydrobenzo[b]pyrrolo[4,3,2-de][1,6]naphthyridin-1(2H)-one]	0.0071 ± 0.000461	–	EC50 ([1]; 3D7): 0.0071 µM
CC(=O)O[C@H]1CO[C@H]2[C@@H]1OC[C@@H]2Oc1cccc(NC(=O)c2c3c(nc4ccccc24)CCN(CCc2ccccc2)C3)c1 [Compound 147, (3S,3aR,6S,6aR)-6-(3-(2-Phenethyl-1,2,3,4-tetrahydrobenzo[b][1,6]naphthyridine-10-carboxamido)phenoxy)hexahydrofuro[3,2-b]furan-3-yl acetate]	–	–	EC50 ([1]; 3D7, read-out: potency (EC50)): 3.87 µM
O=C(Nc1ccc(F)c(F)c1)c1c2c(nc3cc(Cl)ccc13)CCN(CCc1ccccc1)C2 [Compound 157, 7-Chloro-N-(3,4-difluorophenyl)-2-phenethyl-1,2,3,4-tetrahydrobenzo[b][1,6]naphthyridine-10-carboxamide]	0.0179 ± 0.01	–	–
CCN1CCc2nc3ccccc3c(C(=O)Nc3ccc(F)c(F)c3)c2C1 [Compound 128, N-(3,4-Difluorophenyl)-2-ethyl-1,2,3,4-tetrahydrobenzo[b][1,6]naphthyridine-10-carboxamide]	> 12.2	–	–
